Assays:
[1] = biological target: Fibroblast growth factor receptor 1 (Homo sapiens) (UniProt P11362); assay: Residual activity of wild type FGF-R1 at 1 uM by microplate scintillation counting
[2] = biological target: Homeodomain-interacting protein kinase 3 (Homo sapiens) (UniProt Q9H422); assay: Residual activity of HIPK3 at 1 uM by microplate scintillation counting
[3] = biological target: T1, Protein kinase C epsilon type (Homo sapiens) (UniProt Q02156); assay: Residual activity of PKCepsilon at 1 uM by microplate scintillation counting
T1 sequence (whole entry): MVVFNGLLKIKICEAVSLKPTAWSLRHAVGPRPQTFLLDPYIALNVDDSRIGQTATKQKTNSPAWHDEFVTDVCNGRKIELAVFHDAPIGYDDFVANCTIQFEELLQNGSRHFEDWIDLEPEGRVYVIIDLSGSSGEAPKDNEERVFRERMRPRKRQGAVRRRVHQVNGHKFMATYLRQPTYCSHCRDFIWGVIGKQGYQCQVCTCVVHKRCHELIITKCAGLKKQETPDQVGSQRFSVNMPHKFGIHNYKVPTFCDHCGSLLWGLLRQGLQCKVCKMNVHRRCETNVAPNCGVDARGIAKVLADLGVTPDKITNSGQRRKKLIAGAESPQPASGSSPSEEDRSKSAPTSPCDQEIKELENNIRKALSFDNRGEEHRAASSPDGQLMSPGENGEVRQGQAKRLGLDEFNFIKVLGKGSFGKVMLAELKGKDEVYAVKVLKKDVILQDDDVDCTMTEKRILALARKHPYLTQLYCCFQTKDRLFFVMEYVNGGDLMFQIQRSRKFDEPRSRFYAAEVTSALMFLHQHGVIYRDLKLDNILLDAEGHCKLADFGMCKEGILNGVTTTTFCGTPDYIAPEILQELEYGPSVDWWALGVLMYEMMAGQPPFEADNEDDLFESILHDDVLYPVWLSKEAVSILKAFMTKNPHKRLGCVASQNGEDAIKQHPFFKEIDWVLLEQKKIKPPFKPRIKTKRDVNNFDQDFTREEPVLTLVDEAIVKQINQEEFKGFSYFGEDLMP

[4] = biological target: Tyrosine-protein kinase Fgr (Homo sapiens) (UniProt P09769); assay: Residual activity of FGR at 0.1 uM by microplate scintillation counting
Tyrosine-protein kinase Fgr (Homo sapiens), sequence (P09769 2-529 limits assumed): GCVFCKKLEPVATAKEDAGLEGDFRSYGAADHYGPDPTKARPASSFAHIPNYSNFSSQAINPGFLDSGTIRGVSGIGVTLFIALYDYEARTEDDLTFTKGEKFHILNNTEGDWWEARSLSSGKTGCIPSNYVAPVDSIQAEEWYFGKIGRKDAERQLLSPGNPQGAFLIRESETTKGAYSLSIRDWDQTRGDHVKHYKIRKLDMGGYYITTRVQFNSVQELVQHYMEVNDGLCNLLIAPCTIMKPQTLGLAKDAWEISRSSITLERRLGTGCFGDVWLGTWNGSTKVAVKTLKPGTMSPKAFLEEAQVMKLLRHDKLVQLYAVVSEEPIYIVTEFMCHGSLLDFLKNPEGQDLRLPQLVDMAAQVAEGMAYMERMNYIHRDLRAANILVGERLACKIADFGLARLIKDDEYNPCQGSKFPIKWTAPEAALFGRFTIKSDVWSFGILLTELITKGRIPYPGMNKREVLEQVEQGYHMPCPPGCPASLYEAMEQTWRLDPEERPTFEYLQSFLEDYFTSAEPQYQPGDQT

[5] = biological target: Ribosomal protein S6 kinase alpha-2 (Homo sapiens) (UniProt Q15349); assay: Residual activity of RPS6KA2 at 1 uM by microplate scintillation counting
Ribosomal protein S6 kinase alpha-2 (Homo sapiens), sequence (Q15349 whole entry): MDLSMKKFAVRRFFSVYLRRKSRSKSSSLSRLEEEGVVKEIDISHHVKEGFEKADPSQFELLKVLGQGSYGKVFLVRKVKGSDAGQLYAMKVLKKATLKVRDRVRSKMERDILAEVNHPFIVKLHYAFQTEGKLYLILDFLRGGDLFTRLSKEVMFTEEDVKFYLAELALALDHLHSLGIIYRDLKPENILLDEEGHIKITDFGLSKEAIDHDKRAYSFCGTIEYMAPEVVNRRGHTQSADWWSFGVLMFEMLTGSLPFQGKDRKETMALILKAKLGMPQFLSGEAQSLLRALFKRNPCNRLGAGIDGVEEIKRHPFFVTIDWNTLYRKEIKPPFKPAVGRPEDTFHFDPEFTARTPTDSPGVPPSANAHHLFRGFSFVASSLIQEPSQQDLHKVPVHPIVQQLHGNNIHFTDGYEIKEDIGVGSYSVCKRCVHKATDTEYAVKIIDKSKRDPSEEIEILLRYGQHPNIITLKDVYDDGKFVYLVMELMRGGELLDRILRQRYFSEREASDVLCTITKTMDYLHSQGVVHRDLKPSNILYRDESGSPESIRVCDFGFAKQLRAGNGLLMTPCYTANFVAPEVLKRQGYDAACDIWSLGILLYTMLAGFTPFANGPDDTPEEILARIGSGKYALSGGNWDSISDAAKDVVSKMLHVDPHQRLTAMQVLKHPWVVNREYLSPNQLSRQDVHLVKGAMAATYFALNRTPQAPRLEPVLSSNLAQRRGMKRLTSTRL

[6] = biological target: Ribosomal protein S6 kinase alpha-4 (Homo sapiens) (UniProt O75676); assay: Residual activity of RPS6KA4 at 1 uM by microplate scintillation counting
[7] = biological target: Casein kinase I isoform gamma-2 (Homo sapiens) (UniProt P78368); assay: Residual activity of CK1gamma2 at 10 uM by microplate scintillation counting
Casein kinase I isoform gamma-2 (Homo sapiens), sequence (P78368 whole entry, looked up, canonical isoform): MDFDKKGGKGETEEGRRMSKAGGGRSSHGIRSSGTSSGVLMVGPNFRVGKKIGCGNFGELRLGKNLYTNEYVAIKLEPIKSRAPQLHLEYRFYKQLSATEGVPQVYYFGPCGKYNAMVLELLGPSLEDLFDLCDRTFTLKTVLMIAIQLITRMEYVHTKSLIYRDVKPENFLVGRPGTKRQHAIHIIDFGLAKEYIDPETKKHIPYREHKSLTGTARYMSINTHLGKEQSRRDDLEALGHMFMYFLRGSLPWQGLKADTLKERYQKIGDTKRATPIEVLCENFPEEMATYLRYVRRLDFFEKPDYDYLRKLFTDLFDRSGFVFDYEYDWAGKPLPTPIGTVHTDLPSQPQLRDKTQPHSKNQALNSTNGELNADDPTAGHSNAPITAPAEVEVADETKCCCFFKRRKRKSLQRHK

[8] = system: Tyrosine-protein kinase ABL1 (Homo sapiens), P00519 [T315I]; assay: Residual activity of ABL1 T315I mutant at 1 uM by microplate scintillation counting
[9] = biological target: T2, Activin receptor type-1 (Homo sapiens) (UniProt Q04771); assay: Residual activity of ACV-R1 at 1 uM by microplate scintillation counting
T2 sequence (whole entry): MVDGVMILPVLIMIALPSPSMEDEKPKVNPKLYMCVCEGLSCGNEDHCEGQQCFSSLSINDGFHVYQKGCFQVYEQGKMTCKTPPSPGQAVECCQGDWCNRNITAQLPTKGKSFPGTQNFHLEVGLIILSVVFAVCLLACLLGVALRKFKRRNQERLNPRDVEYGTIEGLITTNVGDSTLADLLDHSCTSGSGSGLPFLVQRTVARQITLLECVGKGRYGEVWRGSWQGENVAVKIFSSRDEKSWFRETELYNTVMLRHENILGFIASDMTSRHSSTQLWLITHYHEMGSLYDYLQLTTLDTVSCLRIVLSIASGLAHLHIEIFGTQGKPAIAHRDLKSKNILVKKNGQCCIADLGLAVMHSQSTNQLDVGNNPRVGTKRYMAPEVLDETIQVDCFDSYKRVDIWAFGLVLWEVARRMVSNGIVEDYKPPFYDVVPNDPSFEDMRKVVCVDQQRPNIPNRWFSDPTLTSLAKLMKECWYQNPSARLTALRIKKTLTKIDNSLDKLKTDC

[10] = biological target: T3, MAP kinase-activated protein kinase 5 (Homo sapiens) (UniProt Q8IW41); assay: Residual activity of MAPKAPK5 at 10 uM by microplate scintillation counting
T3 sequence (whole entry): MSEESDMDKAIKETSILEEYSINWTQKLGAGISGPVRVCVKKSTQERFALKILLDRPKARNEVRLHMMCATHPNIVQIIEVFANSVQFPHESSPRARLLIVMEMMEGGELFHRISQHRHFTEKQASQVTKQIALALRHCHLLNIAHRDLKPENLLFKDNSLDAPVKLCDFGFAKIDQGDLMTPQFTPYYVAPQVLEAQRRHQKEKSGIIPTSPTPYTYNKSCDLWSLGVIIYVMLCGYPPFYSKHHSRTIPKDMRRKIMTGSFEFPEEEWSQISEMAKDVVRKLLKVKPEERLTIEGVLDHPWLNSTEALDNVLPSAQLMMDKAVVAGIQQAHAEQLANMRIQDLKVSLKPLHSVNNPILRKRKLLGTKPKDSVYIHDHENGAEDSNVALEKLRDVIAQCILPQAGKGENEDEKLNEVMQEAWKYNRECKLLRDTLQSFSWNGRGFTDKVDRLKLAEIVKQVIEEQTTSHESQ

[11] = biological target: MAP/microtubule affinity-regulating kinase 3 (Homo sapiens) (UniProt P27448); assay: Residual activity of MARK3 at 10 uM by microplate scintillation counting
MAP/microtubule affinity-regulating kinase 3 (Homo sapiens), sequence (P27448 whole entry, looked up): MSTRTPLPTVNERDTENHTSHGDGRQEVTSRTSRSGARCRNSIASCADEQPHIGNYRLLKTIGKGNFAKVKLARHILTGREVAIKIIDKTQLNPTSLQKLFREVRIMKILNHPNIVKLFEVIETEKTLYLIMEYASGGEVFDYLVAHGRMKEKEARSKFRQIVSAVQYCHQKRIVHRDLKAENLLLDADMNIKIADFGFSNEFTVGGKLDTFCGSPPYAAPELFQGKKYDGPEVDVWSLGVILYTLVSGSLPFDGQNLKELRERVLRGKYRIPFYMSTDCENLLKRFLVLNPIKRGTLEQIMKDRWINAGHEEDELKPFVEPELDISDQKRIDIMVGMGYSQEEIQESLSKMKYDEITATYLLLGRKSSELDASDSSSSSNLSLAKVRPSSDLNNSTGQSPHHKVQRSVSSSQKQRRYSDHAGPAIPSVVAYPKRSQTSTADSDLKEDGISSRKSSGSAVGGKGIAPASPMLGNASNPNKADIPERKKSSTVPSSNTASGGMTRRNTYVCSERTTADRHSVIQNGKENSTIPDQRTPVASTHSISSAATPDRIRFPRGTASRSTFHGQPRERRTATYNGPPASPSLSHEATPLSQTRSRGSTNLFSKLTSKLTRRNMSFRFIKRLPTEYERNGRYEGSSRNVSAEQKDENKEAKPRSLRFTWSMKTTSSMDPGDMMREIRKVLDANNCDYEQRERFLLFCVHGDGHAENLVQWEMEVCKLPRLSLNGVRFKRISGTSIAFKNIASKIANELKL

[12] = biological target: T4, Serine/threonine-protein kinase Nek2 (Homo sapiens) (UniProt P51955); assay: Residual activity of NEK2 at 10 uM by microplate scintillation counting
T4 sequence (whole entry): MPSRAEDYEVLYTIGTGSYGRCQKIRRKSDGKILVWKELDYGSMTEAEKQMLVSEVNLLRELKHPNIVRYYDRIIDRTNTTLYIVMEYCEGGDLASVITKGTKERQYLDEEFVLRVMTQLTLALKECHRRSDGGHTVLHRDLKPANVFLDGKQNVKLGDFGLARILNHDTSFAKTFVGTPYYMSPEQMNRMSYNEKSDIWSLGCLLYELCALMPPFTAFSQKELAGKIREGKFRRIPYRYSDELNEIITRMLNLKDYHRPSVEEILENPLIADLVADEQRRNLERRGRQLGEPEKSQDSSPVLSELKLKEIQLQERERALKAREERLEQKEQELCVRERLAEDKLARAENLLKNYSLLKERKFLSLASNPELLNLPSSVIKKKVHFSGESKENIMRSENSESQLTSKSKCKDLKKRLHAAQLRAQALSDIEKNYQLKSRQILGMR

[13] = biological target: Mitogen-activated protein kinase 11 (Homo sapiens) (UniProt Q15759); assay: Residual activity of p38beta at 10 uM by microplate scintillation counting
Mitogen-activated protein kinase 11 (Homo sapiens), sequence (Q15759 whole entry): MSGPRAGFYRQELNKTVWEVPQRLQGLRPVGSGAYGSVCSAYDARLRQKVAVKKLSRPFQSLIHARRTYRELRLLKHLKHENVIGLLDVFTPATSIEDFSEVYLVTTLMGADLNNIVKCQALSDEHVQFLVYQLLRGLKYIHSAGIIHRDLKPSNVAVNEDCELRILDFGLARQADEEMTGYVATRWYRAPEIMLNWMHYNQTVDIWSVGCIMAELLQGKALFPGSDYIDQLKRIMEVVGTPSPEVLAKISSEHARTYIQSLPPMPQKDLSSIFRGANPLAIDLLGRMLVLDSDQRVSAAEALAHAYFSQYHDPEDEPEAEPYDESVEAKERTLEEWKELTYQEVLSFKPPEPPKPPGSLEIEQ

[14] = Residual activity of S6K at 0.1 uM by microplate scintillation counting

Homeodomain-interacting protein kinase 3 (Homo sapiens), sequence (Q9H422 whole entry, looked up): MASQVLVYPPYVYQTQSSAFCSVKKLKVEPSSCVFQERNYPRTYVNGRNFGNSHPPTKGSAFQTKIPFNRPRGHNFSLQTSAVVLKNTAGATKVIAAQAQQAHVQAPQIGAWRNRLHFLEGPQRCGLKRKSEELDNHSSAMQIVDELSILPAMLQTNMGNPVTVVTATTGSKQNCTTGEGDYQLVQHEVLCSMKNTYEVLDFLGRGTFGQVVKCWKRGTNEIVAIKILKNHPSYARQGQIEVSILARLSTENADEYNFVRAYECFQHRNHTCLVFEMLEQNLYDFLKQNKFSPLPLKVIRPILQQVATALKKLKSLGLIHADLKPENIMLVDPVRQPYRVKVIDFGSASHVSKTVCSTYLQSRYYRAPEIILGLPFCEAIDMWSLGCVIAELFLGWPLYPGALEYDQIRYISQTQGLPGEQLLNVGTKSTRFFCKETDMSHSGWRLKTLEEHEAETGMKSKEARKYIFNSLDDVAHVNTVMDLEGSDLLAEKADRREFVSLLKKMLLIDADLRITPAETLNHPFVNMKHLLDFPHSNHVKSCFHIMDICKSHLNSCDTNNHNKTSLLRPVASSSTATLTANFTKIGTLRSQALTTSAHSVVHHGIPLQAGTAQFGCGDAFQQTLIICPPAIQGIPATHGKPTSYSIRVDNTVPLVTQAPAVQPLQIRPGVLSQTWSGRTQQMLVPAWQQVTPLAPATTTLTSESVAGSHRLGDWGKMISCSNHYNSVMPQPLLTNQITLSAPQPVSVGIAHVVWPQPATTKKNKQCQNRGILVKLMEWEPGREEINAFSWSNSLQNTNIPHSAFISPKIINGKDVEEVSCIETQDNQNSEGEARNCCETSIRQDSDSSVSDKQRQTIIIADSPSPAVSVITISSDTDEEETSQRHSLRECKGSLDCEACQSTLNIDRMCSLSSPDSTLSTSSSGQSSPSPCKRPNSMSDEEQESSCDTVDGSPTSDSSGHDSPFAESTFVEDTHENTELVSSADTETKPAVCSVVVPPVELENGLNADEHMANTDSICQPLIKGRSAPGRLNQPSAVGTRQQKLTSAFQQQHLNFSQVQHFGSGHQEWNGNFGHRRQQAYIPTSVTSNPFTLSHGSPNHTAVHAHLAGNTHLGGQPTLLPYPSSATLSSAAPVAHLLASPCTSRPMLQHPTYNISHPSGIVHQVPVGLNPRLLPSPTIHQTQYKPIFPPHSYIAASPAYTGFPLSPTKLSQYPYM
Fibroblast growth factor receptor 1 (Homo sapiens), sequence (P11362 22-822 limits assumed): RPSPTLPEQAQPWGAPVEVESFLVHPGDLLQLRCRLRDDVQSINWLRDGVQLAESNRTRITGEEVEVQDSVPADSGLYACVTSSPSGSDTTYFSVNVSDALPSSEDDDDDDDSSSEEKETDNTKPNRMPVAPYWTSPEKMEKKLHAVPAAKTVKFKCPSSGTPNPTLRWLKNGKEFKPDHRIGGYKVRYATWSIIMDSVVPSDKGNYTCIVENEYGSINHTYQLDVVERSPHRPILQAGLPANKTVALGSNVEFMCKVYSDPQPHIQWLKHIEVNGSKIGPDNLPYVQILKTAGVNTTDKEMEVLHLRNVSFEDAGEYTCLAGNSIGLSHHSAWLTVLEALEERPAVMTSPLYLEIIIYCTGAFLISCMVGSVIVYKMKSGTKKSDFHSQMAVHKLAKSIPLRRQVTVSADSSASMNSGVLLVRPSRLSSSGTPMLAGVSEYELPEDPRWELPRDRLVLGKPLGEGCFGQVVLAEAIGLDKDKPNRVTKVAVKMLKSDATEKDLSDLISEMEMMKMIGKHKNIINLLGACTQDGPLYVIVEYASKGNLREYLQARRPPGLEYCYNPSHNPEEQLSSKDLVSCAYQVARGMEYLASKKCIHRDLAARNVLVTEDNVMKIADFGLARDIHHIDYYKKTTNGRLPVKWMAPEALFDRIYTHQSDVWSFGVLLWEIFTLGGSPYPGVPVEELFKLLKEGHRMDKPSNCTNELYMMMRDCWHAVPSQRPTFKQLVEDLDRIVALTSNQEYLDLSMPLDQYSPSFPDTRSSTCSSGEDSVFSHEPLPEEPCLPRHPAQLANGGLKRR

Structure (SMILES)	residual activity [1]	residual activity [2]	residual activity [3]	residual activity [4]	residual activity [5]	residual activity [6]	residual activity [7]	residual activity [8]	residual activity [9]	residual activity [10]	residual activity [11]	residual activity [12]	residual activity [13]	residual activity [14]
COc1cc2c(Oc3ccc(-c4nc5ccccc5s4)cc3)ncnc2cc1OCCCN1CCN(C)CC1	123%	84%	94%	103%	88%	86%	217%	103%	89%	143%	107%	54%	350%	85%
COc1cc2c(Oc3ccc(-c4nc5ccccc5s4)cc3F)ncnc2cc1OCCCN1CCN(C)CC1	115%	81%	90%	103%	99%	87%	226%	96%	93%	134%	104%	38%	337%	87%
COc1cc2c(Oc3ccc(-c4nc5ccccc5s4)cc3)ncnc2cc1OCCCN1CCCC1	126%	86%	80%	96%	99%	86%	198%	95%	85%	109%	108%	34%	337%	90%
